Laboratory results reported in publication PMC12136037, “Type II kinase inhibitors that target Parkinson’s disease–associated LRRK2” (Science Advances, 2025).

Legend:
Test in all cases: DSF 100 kinase selectivity screen;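 also: compound tested at 20 µM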
Format in all cases: binding
[1] = biological target: T1, ~100 representative kinases (Homo sapiens, UniProt P15735); conditions: protein PHKG2; average of three replicates
T1 construct: Recombinant protein kinase domains with a concentration of 2 μM
T1 sequence (P15735 1-406): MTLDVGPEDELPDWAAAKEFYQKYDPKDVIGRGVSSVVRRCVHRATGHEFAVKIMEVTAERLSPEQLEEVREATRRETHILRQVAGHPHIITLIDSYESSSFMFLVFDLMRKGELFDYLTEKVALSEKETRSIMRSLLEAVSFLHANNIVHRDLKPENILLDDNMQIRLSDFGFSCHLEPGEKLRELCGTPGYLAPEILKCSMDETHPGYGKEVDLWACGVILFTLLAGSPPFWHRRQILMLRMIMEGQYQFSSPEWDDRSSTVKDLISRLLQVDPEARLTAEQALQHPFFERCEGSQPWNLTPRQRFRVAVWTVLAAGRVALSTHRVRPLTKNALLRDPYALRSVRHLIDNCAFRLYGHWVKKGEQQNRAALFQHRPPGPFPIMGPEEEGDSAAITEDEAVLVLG
In short: (§1)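 Each kinase domain, at 2 μM, is mixed with 20 μM test compound and SYPRO Orange in Hepes (20 mM, pH 7.5) with 500 mM NaCl. Temperature is then raised at 3°C/min and fluorescence-monitored unfolding yields the melting temperature change, ΔTm in degrees Celsius.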

[2] = biological target: T2, ~100 representative kinases (Homo sapiens, UniProt Q13873); conditions: Protein BMPR2; average of three replicates
T2 construct: Recombinant protein kinase domains with a concentration of 2 μM
T2 sequence (Q13873 27-1038): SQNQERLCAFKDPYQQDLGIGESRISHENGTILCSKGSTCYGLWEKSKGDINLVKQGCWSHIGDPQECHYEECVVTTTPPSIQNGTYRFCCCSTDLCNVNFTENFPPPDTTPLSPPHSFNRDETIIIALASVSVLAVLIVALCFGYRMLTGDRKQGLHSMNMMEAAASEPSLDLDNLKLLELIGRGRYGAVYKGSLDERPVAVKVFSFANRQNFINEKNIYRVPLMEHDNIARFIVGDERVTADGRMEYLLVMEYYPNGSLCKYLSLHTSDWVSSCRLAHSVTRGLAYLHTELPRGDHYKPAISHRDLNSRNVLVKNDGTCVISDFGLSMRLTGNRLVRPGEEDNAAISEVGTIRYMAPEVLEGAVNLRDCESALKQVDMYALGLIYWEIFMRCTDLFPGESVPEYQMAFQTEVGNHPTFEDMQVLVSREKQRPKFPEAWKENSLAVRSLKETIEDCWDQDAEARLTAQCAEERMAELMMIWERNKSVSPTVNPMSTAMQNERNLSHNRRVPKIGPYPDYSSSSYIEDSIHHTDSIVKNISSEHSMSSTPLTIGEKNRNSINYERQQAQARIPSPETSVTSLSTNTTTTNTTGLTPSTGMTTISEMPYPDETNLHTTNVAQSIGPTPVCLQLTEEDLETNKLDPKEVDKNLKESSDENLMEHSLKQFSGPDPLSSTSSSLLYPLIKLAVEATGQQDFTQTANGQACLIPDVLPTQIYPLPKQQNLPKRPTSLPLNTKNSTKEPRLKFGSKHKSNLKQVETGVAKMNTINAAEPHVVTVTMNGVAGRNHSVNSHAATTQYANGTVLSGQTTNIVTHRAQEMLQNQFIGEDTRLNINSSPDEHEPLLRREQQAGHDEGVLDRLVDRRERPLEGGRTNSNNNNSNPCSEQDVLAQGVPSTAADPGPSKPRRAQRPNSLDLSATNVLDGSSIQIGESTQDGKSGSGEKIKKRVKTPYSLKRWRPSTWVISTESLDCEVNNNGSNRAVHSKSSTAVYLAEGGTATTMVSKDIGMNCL
In short: as §1

[3] = biological target: T3, ~100 representative kinases (Homo sapiens, UniProt Q8TF76); conditions: protein GSG2; average of three replicates
T3 construct: Recombinant protein kinase domains with a concentration of 2 μM
T3 sequence (Q8TF76 1-798): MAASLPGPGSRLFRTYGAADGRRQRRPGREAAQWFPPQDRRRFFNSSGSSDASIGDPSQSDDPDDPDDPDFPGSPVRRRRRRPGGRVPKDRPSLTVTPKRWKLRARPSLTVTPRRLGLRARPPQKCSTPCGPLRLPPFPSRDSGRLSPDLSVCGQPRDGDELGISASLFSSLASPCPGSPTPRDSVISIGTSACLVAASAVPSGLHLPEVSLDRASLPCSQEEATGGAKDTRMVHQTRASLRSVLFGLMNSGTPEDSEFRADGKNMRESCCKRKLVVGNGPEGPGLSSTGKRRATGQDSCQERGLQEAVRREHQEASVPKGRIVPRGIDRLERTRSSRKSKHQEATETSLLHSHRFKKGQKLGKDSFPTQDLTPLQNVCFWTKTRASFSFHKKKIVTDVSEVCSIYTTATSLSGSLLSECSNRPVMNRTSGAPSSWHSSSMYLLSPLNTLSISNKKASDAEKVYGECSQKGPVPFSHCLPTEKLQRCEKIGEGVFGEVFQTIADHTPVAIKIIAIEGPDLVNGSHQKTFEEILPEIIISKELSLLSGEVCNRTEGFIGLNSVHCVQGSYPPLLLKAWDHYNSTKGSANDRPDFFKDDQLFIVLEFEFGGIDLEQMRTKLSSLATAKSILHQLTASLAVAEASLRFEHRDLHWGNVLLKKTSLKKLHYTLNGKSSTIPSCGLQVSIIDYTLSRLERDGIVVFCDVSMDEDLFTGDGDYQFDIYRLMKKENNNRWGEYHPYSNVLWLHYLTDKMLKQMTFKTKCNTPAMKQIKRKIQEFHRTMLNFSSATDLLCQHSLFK
In short: as §1

[4] = biological target: T4, ~100 representative kinases (Homo sapiens, UniProt P11309); conditions: protein PIM1; average of three replicates
T4 construct: Recombinant protein kinase domains with a concentration of 2 μM
In short: as §1

[5] = biological target: T5, ~100 representative kinases (Homo sapiens, UniProt Q13627); conditions: Protein DYRK1A; average of three replicates
T5 construct: Recombinant protein kinase domains with a concentration of 2 μM
In short: as §1

T4 sequence (P11309 whole entry, the tested form may be a part): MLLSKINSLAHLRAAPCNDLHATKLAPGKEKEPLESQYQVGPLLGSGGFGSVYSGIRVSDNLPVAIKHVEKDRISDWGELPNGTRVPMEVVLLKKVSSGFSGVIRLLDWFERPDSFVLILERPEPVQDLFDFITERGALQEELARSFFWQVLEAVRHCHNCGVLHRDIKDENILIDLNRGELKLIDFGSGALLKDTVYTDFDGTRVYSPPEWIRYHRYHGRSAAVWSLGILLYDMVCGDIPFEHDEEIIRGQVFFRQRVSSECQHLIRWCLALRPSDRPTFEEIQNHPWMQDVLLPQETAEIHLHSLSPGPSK

dTm [1] [K] | dTm [2] [K] | dTm [3] [K] | dTm [4] [K] | dTm [5] [K] | Structure (SMILES)
-0.17 | 1.36 | 0.98 | 1.54 | -1.40 | Cc1ccc(C(=O)Nc2ccc(CN3CCN(C)CC3)c(C(F)(F)F)c2)cc1C#Cc1c[nH]c2ncnc(N3CCOCC3)c12 [Compound 1]
2.27 | 0.92 | -0.43 | 2.13 | 4.73 | O=C(Nc1ccc(F)cc1)C1(C(=O)Nc2cccc(-c3c[nH]c4ncnc(N5CCOCC5)c34)c2)CC1 [Compound 2]
0.20 | 0.82 | -1.23 | 0.92 | 2.17 | O=C(Nc1cccc(-c2c[nH]c3ncnc(N4CCOCC4)c23)c1)c1cccn(-c2ccc(F)cc2)c1=O [Compound 4]
0.93 | 0.52 | -1.48 | 1.27 | -0.88 | Cc1cc(NC(=O)C2(C(=O)Nc3ccc(F)cc3)CC2)cc(-c2c[nH]c3ncnc(N4CCOCC4)c23)c1 [Compound 6]
0.68 | 0.44 | -2.96 | 1.06 | 0.32 | O=C(Nc1cccc(-c2c[nH]c3ncnc(N4CCOCC4)c23)c1)C1(C(=O)Nc2cccc3c2CCC3)CC1 [Compound 11]
1.25 | 1.02 | -0.45 | 3.25 | 4.34 | O=C(Nc1ccccc1)C1(C(=O)Nc2cccc(-c3c[nH]c4ncnc(N5CCOCC5)c34)c2)CC1 [Compound 12]
3.23 | 1.26 | 0.82 | 4.69 | 8.77 | O=C(Nc1ccc(Cl)cc1)C1(C(=O)Nc2cccc(-c3c[nH]c4ncnc(N5CCOCC5)c34)c2)CC1 [Compound 13]
0.65 | 1.10 | -0.69 | 1.13 | 3.30 | Cc1ccc(NC(=O)C2(C(=O)Nc3cccc(-c4c[nH]c5ncnc(N6CCOCC6)c45)c3)CC2)cc1 [Compound 14]
0.76 | 0.80 | -1.97 | 1.02 | 3.55 | CCc1ccc(NC(=O)C2(C(=O)Nc3cccc(-c4c[nH]c5ncnc(N6CCOCC6)c45)c3)CC2)cc1 [Compound 15]
-0.08 | 0.48 | -0.39 | -0.51 | 0.49 | COc1ccc(NC(=O)C2(C(=O)Nc3cccc(-c4c[nH]c5ncnc(N6CCOCC6)c45)c3)CC2)cc1 [Compound 16]
2.57 | 0.95 | -3.87 | 3.60 | 4.77 | O=C(Nc1cccc(-c2c[nH]c3ncnc(N4CCOCC4)c23)c1)C1(C(=O)Nc2ccc(F)c(F)c2)CC1 [Compound 17]
3.01 | 1.13 | -3.25 | 5.41 | 6.34 | O=C(Nc1cccc(-c2c[nH]c3ncnc(N4CCOCC4)c23)c1)C1(C(=O)Nc2ccc(F)c(Cl)c2)CC1 [Compound 18]
1.52 | -0.62 | -2.45 | 3.98 | 1.71 | O=C(Nc1cccc(-c2c[nH]c3ncnc(N4CCOCC4)c23)c1)C1(C(=O)Nc2ccc(F)c(Br)c2)CC1 [Compound 19]
2.79 | 1.32 | -3.30 | 5.73 | 7.39 | Cc1cc(NC(=O)C2(C(=O)Nc3cccc(-c4c[nH]c5ncnc(N6CCOCC6)c45)c3)CC2)ccc1F [Compound 20]
0.25 | 0.78 | -2.20 | 3.07 | 2.83 | COc1cc(NC(=O)C2(C(=O)Nc3cccc(-c4c[nH]c5ncnc(N6CCOCC6)c45)c3)CC2)ccc1F [Compound 21]
-0.10 | 0.10 | -2.85 | 4.89 | 0.19 | CC(C)(C)c1cccc(NC(=O)C2(C(=O)Nc3cccc(-c4c[nH]c5ncnc(N6CCOCC6)c45)c3)CC2)c1 [Compound 22]
0.21 | 0.82 | -2.84 | 0.61 | 1.28 | O=C(Nc1cccc(-c2c[nH]c3ncnc(N4CCOCC4)c23)c1)C1(C(=O)Nc2ccc(F)cc2F)CC1 [Compound 23]
-0.00698 | 0.57 | -2.81 | 0.58 | 0.41 | Cc1cc(F)ccc1NC(=O)C1(C(=O)Nc2cccc(-c3c[nH]c4ncnc(N5CCOCC5)c34)c2)CC1 [Compound 24]
0.58 | 0.20 | -3.43 | 2.04 | 0.31 | O=C(Nc1cccc(-c2c[nH]c3ncnc(N4CCOCC4)c23)c1)C1(C(=O)Nc2cc(Br)c(F)cc2F)CC1 [Compound 25]
0.60 | 0.05 | -2.00 | 1.29 | 0.19 | O=C(Nc1cccc(-c2c[nH]c3ncnc(N4CCOCC4)c23)c1)C1(C(=O)Nc2ccc(F)c(Br)c2F)CC1 [Compound 26]

Structure (SMILES) | dTm [1] [K] | dTm [2] [K] | dTm [3] [K] | dTm [4] [K] | dTm [5] [K]
Cc1ccc(C(=O)Nc2ccc(CN3CCN(C)CC3)c(C(F)(F)F)c2)cc1C#Cc1cnc2[nH]ncc2c1 [GZD-824, reference compound] | -0.11 | – | 0.04 | -0.44 | -2.15
CNC(=O)c1cc(Oc2ccc(NC(=O)Nc3cc(C(C)(C)C)nn3-c3ccc4ncccc4c3)c(F)c2)ccn1 [Rebastinib, reference compound] | – | -0.70 | 0.28 | 0.65 | 0.55
CN[C@@H]1C[C@H]2O[C@@](C)([C@@H]1OC)n1c3ccccc3c3c4c(c5c6ccccc6n2c5c31)C(=O)NC4 [Staurosporine] | – | 3.02 | 8.53 | – | –
